≈ marks a conversion by molar mass, not a printed value. Like-named read-outs stand apart in the source and are kept apart here.
Assays:
[1] = system: M. morganii isolates; experiment: microbe, parasite or virus in culture; format: cell-based; details: Morganella morganii
[2] = system: P. pennerii isolates; experiment: organism not typed; format: cell-based, Proteus pennerii
[3] = format: in vivo, human
[4] = system: ethanol treated spores; format: cell-based; details: lysozyme addition to the plates (2 ug/ml); Sweet B or M2GSC media (FIG. 14)
[5] = 10 patients with recurrent C. difficile treated with ethanol treated spore preparations

| Compound | % of Patients OTU Engrafts [3, 5] [%] | other results |
| --- | --- | --- |
| C[C@@H](O)[C@H]1C(=O)N2C(C(=O)O)=C(SCCN=CN)C[C@H]12 [imipenem] | – | MIC [1]: 2 to 4 µg/mL (≈ 6.68 to 13.4 µM); MIC [2]: 4 to 8 µg/mL (≈ 13.4 to 26.7 µM) |
| Bacteroides_fragilis | 30 | – |
| Clostridium_bartlettii | 70 | – |
| Clostridium_butyricum | – | % of Patients OTU Engrafts ([3]; human, in vivo): 20% |
| Clostridium_clostridioforme | 60 | – |
| Clostridium_disporicum | 30 | – |
| Clostridium_mayombei | 50 | – |
| Clostridium_symbiosum | 50 | – |
| lysozyme | – | effect on germination [4]: small effect |

Reference: patent US10064901B2, “Compositions and methods” (priority 2013, dated 2018)
